Experimental data published in patent US20140140952A1, “D-Alanine Ester of Sp-Nucleoside Analog” (IDENIX PHARMACEUTICALS, INC., priority 2012, published 2014).

Key:
[1] = Liver pharmacokinetics (triphosphate) following a single oral dose in CD-1 mice; type: in vivo; conditions: CD-1 male mice, single oral dose 10 mg/kg for I or 25 mg/kg for II in PEG 200; liver 2′-methyl-2′-fluorouridine triphosphate; 4, 12, 24 hours
Experimental: Liver samples were analyzed for the active species 2′-methyl-2′-fluorouridine triphosphate (2′-Me-2′-F-U TP) by LC-MS/MS. […] Internal standard solution was added to the homogenate followed by neutralization with 20% ammonium hydroxide solution and addition of 500 μL 1% formic acid. The tissue samples were extracted by weak anion exchange solid phase extraction (SPE). Post extraction, the eluates were evaporated under nitrogen, followed by reconstitution before injection onto the LC-MS/MS system. […] The calibration range was 10 to 10000 pmol/mL in mouse liver homogenate (50 to 50000 pmol/g of mouse liver).

[2] = Stability in human liver microsomes; type: in vitro ADME; conditions: human liver microsomes 1.0 mg/mL, 10 μM, NADPH, 60 min
Experimental: (§1) Stability of test compounds was determined in subcellular fractions (microsomes and S9) of human liver and intestine in duplicate for each matrix. Pooled liver and intestinal microsomal, intestinal and liver S9 proteins (1.0 mg/mL), suspended in incubation buffer (100 mM potassium phosphate, pH 7.4, 5 mM MgCl2, and 0.1 mM EDTA), were preincubated for 5 min at 37° C. with 10 μM of a test compound from a 10 mM stock solution in DMSO (final DMSO concentration was 0.1%); the reaction was initiated by the addition of NADPH (3 mM final concentration). At specific times (0 and 60 min), 0.1 mL samples were taken and the reaction terminated by the addition of 4 volumes of stop solution (acetonitrile with 500 ng/mL carbutamide as an internal standard). The samples were vortexed for 30 sec and then centrifuged at 16,000 g for 10 min. Aliquots of supernatants (100 μL each) were transferred to 96 deep-well plates preloaded with 100 μL distilled water and analyzed after mixing by LC-MS/MS. The MS peak area ratio of the test compound versus the internal standard was calculated and percent unchanged test compound over 60 minutes was calculated using this ratio.

[3] = Plasma pharmacokinetics following a single oral dose in CD-1 mice; type: in vivo; conditions: CD-1 male mice, single oral dose 10 mg/kg for I or 25 mg/kg for II in PEG 200; plasma 2′-methyl-2′-fluorouridine; 4, 12, 24 hours
Experimental: Plasma samples were analyzed for 2′-methyl-2′-fluorouridine (2′-Me-2′-F-U) by LC-MS/MS. The internal standard (IS) was D3-2′-F-2′-Me-G. For protein precipitation and extraction, each plasma sample (50 μL) was treated with 500 μL of 0.2% formic acid in acetonitrile and 20 μL of the internal standard working solution. After vortexing and centrifugation, 500 μL of the sample extracts were transferred to a new plate, dried under N2 at ˜28° C. and reconstituted with 75 μL of 0.2% FA in water. The extracts were chromatographed on an Aquasil C18 column using a gradient system of 0.2% formic acid in water and acetonitrile. The analytes were detected and quantified by tandem mass spectrometry in positive ion mode on an MDS Sciex API5000 equipped with a Turbo Ionspray® interface. The calibration range was 0.500 (LLOQ) to 200 ng/mL in mouse plasma.

HCV genotype 1b replicon = experiment: HCV replicon assay (Zluc luciferase reporter); type: cell-based; conditions: Hepatitis C virus, Zluc cells, 72 hours
Experimental: Huh-7-derived cell line (Zluc) that harbors an HCV genotype 1b replicon and a luciferase reporter gene was grown in Dulbecco's Modified Eagle Medium (DMEM) supplemented with 10% fetal bovine serum, 2 mM GlutaMAX, 1% MEM nonessential amino acids, 100 IU/mL penicillin, 100 μg/mL streptomycin, and 0.5 mg/mL Geneticin® (G418). For dose response testing the cells were seeded in 96-well plates at 7.5×10^3 cells per well in a volume of 50 μL, and incubated at 37° C./5% CO2. Drug solutions were made up freshly in Huh-7 media as 2× stocks. […] were prepared from these stocks in DMEM without G418. At least three hours after Zluc cells were seeded, drug treatment was initiated by adding 50 μL of drug dilutions to the plates in duplicate. Final concentrations of drug ranged from 100 μM to 0.0000512 μM. Cells were then incubated at 37° C./5% CO2. […] For this, media was removed from the plates via gentle tapping. Fifty microliters of ONE-glo luciferase assay reagent was added to each well. The plates were shaken gently for 3 min at room temperature and luminescence was measured on a Victor^3 V 1420 multilabel counter (Perkin Elmer) with a 1 second read time using a 700 nm cut-off filter. The EC50 values were calculated from dose response curves from the resulting best-fit equations determined by Microsoft Excel and XLfit 5.2 software. […]

[4] = Stability in human intestinal microsomes; type: in vitro ADME; conditions: human intestinal microsomes 1.0 mg/mL, 10 μM, NADPH, 60 min
Experimental: as §1

[5] = Cytotoxicity evaluation, CellTiter-Blue Cell Viability Assay; type: cell-based; conditions: human, Zluc cells (Huh-7-derived cell line), read-out: HCV Replicon CC50
Experimental: For cytotoxicity evaluation, Zluc cells were treated with compound as described herein, and cell viability was monitored using the CellTiter-Blue Cell Viability Assay (Promega) by adding 20 μL of the assay solution to each well. The plates were then incubated at 37° C./5% CO2 for at least 3 hours. Fluorescence was detected in plates using excitation and emission wavelengths of 531 and 595 nm, respectively, in a Victor^3 V 1420 multilabel counter (Perkin Elmer) and CC50 values were determined using Microsoft Excel and XLfit 5.2 software.

CC(C)OC(=O)[C@@H](C)N[P@@](=O)(OCC1O[C@@H](n2ccc(=O)[nH]c2=O)[C@](C)(F)[C@@H]1O)Oc1ccccc1 (single isomer, unassigned) [Compound (Ia)]
Ms Liver 2′-Me-2′-F-U TP AUC (pmol · hr/g at 1 μmol/kg) [1]: +++++ (1600 < +++++)
Stability (expressed as percent remaining) HLM (1 hr) [2]: ++++ (60% < ++++ ≦ 80%)
Ms Plasma 2′-Me-2′-F-U AUC (pmol · hr/mL at 1 μmol/kg) [3]: +++ (400 < +++ ≦ 1000)
EC50 (HCV genotype 1b replicon): > 10 µM
Stability (expressed as percent remaining) HIM (1 hr) [4]: +++++ (80% < +++++)
CC50 [5]: > 50 µM

CC(C)OC(=O)[C@@H](C)N[P@](=O)(OCC1O[C@@H](n2ccc(=O)[nH]c2=O)[C@](C)(F)[C@@H]1O)Oc1ccccc1 (single isomer, unassigned) [Compound (Ib), D-Alanine, N—((SP,2′R)-2′-deoxy-2′-fluoro-2′-methyl-P-phenyl-5′-uridylyl)-, 1-methylethyl ester]
Ms Liver 2′-Me-2′-F-U TP AUC (pmol · hr/g at 1 μmol/kg) [1]: +++ (400 < +++ ≦ 1000)
Stability (expressed as percent remaining) HLM (1 hr) [2]: +++++ (80% < +++++)
Ms Plasma 2′-Me-2′-F-U AUC (pmol · hr/mL at 1 μmol/kg) [3]: ++ (100 < ++ ≦ 400)
EC50 (HCV genotype 1b replicon): > 10 µM
Stability (expressed as percent remaining) HIM (1 hr) [4]: +++++ (80% < +++++)
CC50 [5]: > 50 µM
